Our source for the EC50 values is patent publication US20230295201A1 (Gilead Sciences, Inc., priority 2020, published 2023).

Read-outs that look alike come from different tables or passages of the source. Where only a bound is given, the exact number is not on record here.

By EC50 is commonly meant the concentration at which the effect is half-maximal.

Format in all cases: cell-based
The test system of experiment [1] is RSV A2. Description: RSV NHBE EC50 (RSV A2 antiviral assay in normal human bronchial epithelial cells). The conditions noted are these: read-out: RSV NHBE EC50.
Experiment [2] concerns HRV16. Description: HRV16 HELA EC50 (cytopathic effect in H1-HeLa cells). Summed up: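 Read-out is luminescent cell viability (CellTiter-Glo) after 96 h of infection at 33 °C, scaled between uninfected and infected-untreated wells. Before infection with titrated virus, compounds went onto H1-HeLa cells as triplicate 3-fold dilution series.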
(In general: Damage to the host cells serves as the signal in cytopathic effect assays.)

Experiment [3] deals with RSV strain A2. Description: RSV HEp-2 EC50 (infectious cytopathic cell protection assay). The conditions noted are these: read-out: RSV HEp-2 EC50. Summed up: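 Percent inhibition of RSV-induced cytopathic effect came from remaining cell viability (CellTiter-Glo luminescence) after 4 days at 37° C. Compounds in 3-fold serial dilutions were exposed to an infectious mix of titered A2 virus and HEp-2 cells at 50,000/ml, with 0% and 100% inhibition control standards.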

Experiment [4] relates to DENV2 replicon. Description: DENV-2 Huh-7 Rep EC50 (replicon luminescence). The conditions noted are these: read-out: DENV-2 Huh-7 Rep EC50. Summed up: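 EC50 derived from luminescence dose-response, normalised to DMSO-only 0% inhibition wells, after 1.5 h with EnduRen substrate. Compounds were first exposed for 48 h at 37° C to DENV2 replicon Huh-7 cells (5,000/well).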
In general terms: Replicon systems follow genome replication, usually without infectious particles.

Where [5] appears, read: human respiratory syncytial virus, NHBE, 96 h, NHBE cells, RSV A2, 4 days.
The mark [6] stands for this setting: 96 h, H1-HeLa cells, 33° C., read-out: HRV16 HELA EC50.
[7] abbreviates: human respiratory syncytial virus, HEp-2, 96 h, HEp-2 cells, RSV A2, 4 days.
Where [8] appears, read: Dengue virus, DENV2, Huh-7, 48 h, Huh-7 replicon cells, 48 hours.
The mark [9] stands for this setting: H1-HeLa cells, 96 h, 33° C.; read-out: HRV16 HELA EC50.
[10] abbreviates: Dengue virus, DENV2, Huh-7, 48 h.
The mark [11] stands for this setting: human respiratory syncytial virus, 96 h, NHBE cells, RSV A2, 4 days.
Setting [12] is: human respiratory syncytial virus, 96 h, HEp-2 cells, RSV A2, 4 days.

As to `CCCCCCCCCCCCCCCCCCOC(=O)[C@H](C)NP(=O)(OC[C@@]1(C#N)O[C@@H](c2ccc3c(N)ncnn23)[C@H](O)[C@@H]1O)Oc1ccccc1` (stereo partly drawn) [Example 193, octadecyl ((((2R,3S,4R,5S)-5-(4-aminopyrrolo[2,1-f][1,2,4]triazin-7-yl)-2-cyano-3,4-dihydroxytetrahydrofuran-2-yl)methoxy)(phenoxy)phosphoryl)-L-alaninate], the EC50 is 0.469 µM in experiment [1] (setting [5]), 0.75 µM in experiment [2] (setting [6]), 0.244 µM in experiment [3] (setting [7]) and > 50 µM in experiment [4] (setting [8]).

In the case of `C[C@H](N)C(=O)OCCNP(=O)(OC[C@@]1(C#N)O[C@@H](c2ccc3c(N)ncnn23)[C@H](O)[C@@H]1O)Oc1ccccc1` (stereo partly drawn) [Example 133, 2-(((((2R,3S,4R,5S)-5-(4-aminopyrrolo[2,1-f][1,2,4]triazin-7-yl)-2-cyano-3,4-dihydroxytetrahydrofuran-2-yl)methoxy)(phenoxy)phosphoryl)amino)ethyl L-alaninate], the EC50 is > 5 µM in experiment [1] (setting [5]), 16.5 µM in experiment [2] (setting [6]), 4.72 µM in experiment [3] (setting [7]) and > 50 µM in experiment [4] (setting [8]).

Turning to `CCCCCCCC(=O)Nc1ncnn2c([C@@H]3O[C@](C#N)(CO[P@@](=O)(N[C@@H](C)C(=O)OC4CCCCC4)Oc4ccccc4)[C@@H](O)[C@H]3O)ccc12` [Example 212, Cyclohexyl ((S)-(((2R,3S,4R,5S)-2-cyano-3,4-dihydroxy-5-(4-octanamidopyrrolo[2,1-f][1,2,4]triazin-7-yl)tetrahydrofuran-2-yl)methoxy)(phenoxy)phosphoryl)-L-alaninate], the EC50 in experiment [1] (setting [5]) was > 5 µM; in experiment [2] (setting [6]), 0.67 µM; in experiment [3] (setting [7]), 0.133 µM; in experiment [4] (setting [8]), 9.77 µM.

With `C[C@H](NP(=O)(OC[C@@]1(C#N)O[C@@H](c2ccc3c(N)ncnn23)[C@H](O)[C@@H]1O)Oc1ccccc1)C(=O)OC1CCCCCC1` (stereo partly drawn) [Example 134, (2S)-cycloheptyl 2-(((((2R,3S,4R,5S)-5-(4-aminopyrrolo[2,1-f][1,2,4]triazin-7-yl)-2-cyano-3,4-dihydroxytetrahydrofuran-2-yl)methoxy)(phenoxy)phosphoryl)amino)propanoate], the 50% effective concentration (EC50) stood at 0.052 µM in experiment [1] (setting [5]), 0.247 µM in experiment [2] (setting [6]), 0.334 µM in experiment [3] (setting [7]) and 24.7 µM in experiment [4] (setting [8]).

For the compound `CCCOC(=O)C(C)NP(=O)(OCC1(C#N)OC(c2ccc3c(N)ncnn23)C(O)C1O)Oc1ccccc1` (single isomer, unassigned) [Example 46], the 50% effective concentration (EC50) in experiment [1] (NHBE cells, RSV A2, 4 days) is 0.393 µM; in experiment [2] (setting [9]) it was 0.487 µM; in experiment [3] (HEp-2 cells, RSV A2, 4 days), 0.082 µM; in experiment [4] (Huh-7 replicon cells, 48 hours), > 20.8 µM.

With `CCCCCCCCCCCCCCCCOCCCOC(=O)[C@H](C)NP(=O)(OC[C@@]1(C#N)O[C@@H](c2ccc3c(N)ncnn23)[C@H](O)[C@@H]1O)Oc1ccccc1` (stereo partly drawn) [Example 198, 3-(hexadecyloxy)propyl ((((2R,3S,4R,5S)-5-(4-aminopyrrolo[2,1-f][1,2,4]triazin-7-yl)-2-cyano-3,4-dihydroxytetrahydrofuran-2-yl)methoxy)(phenoxy)phosphoryl)alaninate], the EC50 was found to be 0.037 µM in experiment [1] (setting [5]), 0.548 µM in experiment [2] (setting [6]), 0.618 µM in experiment [3] (setting [7]) and 39.1 µM in experiment [4] (setting [8]).

On to `CCC(CC)COC(=O)[C@H](C)N[P@@](=O)(OC[C@@]1(C#N)O[C@@H](c2ccc3c(N)ncnn23)[C@H](O)[C@@H]1O)Oc1ccccc1` (single isomer, unassigned) [Example 207], for which the EC50 in experiment [1] (setting [5]) amounted to 0.091 µM; in experiment [2] (setting [6]) it was 0.183 µM; in experiment [3] (setting [7]), 0.124 µM; in experiment [4] (setting [8]), 4.84 µM.

Regarding `CCCCOC(=O)C1CCCN1P(=O)(OC[C@@]1(C#N)O[C@@H](c2ccc3c(N)ncnn23)[C@H](O)[C@@H]1O)Oc1ccccc1` (stereo in doubt) [Example 124, (2R)-butyl 1-((((2R,3S,4R,5S)-5-(4-aminopyrrolo[2,1-f][1,2,4]triazin-7-yl)-2-cyano-3,4-dihydroxytetrahydrofuran-2-yl)methoxy)(phenoxy)phosphoryl)pyrrolidine-2-carboxylate], the EC50 is > 5 µM in experiment [1] (human respiratory syncytial virus, NHBE, 96 h); > 86.4 µM in experiment [2] (96 h, read-out: HRV16 HELA EC50); > 100 µM in experiment [3] (human respiratory syncytial virus, HEp-2, 96 h); > 100 µM in experiment [4] (setting [10]).

Regarding `CC(C)OC(=O)[C@H](C)NP(=O)(N[C@@H](C)C(=O)OC(C)C)OC[C@@]1(C#N)O[C@@H](c2ccc3c(N)ncnn23)[C@H](O)[C@@H]1O` [Example 34], the half-maximal effective concentration (EC50) in experiment [1] (setting [11]) was 2.84 µM; in experiment [2] (setting [9]) it was > 50 µM; in experiment [3] (setting [12]) it was 14 µM; in experiment [4] (setting [10]), > 50 µM.

For the compound `CCC(CC)COC(=O)[C@@H](NP(=O)(OC[C@@]1(C#N)O[C@@H](c2ccc3c(N)ncnn23)[C@H](O)[C@@H]1O)Oc1ccccc1)C1CCCCC1` (stereo partly drawn) [Example 116, (2S)-2-ethylbutyl 2-(((((2R,3S,4R,5S)-5-(4-aminopyrrolo[2,1-f][1,2,4]triazin-7-yl)-2-cyano-3,4-dihydroxytetrahydrofuran-2-yl)methoxy)(phenoxy)phosphoryl)amino)-2-cyclohexylacetate], the half-maximal effective concentration (EC50) in experiment [1] (setting [5]) is > 5 µM; in experiment [2] (setting [6]), > 31.9 µM; in experiment [3] (setting [7]), > 100 µM; in experiment [4] (setting [8]) it was 11.7 µM.

As for `N#C[C@]1(COP(=O)(NCC(=O)OC2CCCC2)Oc2ccccc2)O[C@@H](c2ccc3c(N)ncnn23)[C@H](O)[C@@H]1O` (single isomer, unassigned) [Example 113], the concentration for a half-maximal effect (EC50) is 0.352 µM in experiment [1] (setting [5]), 2.64 µM in experiment [2] (setting [6]), 0.611 µM in experiment [3] (setting [7]) and 42.7 µM in experiment [4] (setting [8]).

For `C[C@H](NP(=O)(OC[C@@]1(C#N)O[C@@H](c2ccc3c(N)ncnn23)[C@H](O)[C@@H]1O)Oc1ccccc1)C(=O)O[C@H]1CC[C@H](N)CC1` (stereo partly drawn) [Example 33, (1r,4S)-4-aminocyclohexyl ((((2R,3S,4R,5S)-5-(4-aminopyrrolo[2,1-f][1,2,4]triazin-7-yl)-2-cyano-3,4-dihydroxytetrahydrofuran-2-yl)methoxy)(phenoxy)phosphoryl)-L-alaninate], the EC50 in experiment [1] (setting [5]) was 2.68 µM; in experiment [2] (setting [6]), 27 µM; in experiment [3] (setting [7]) it was 1.91 µM; in experiment [4] (setting [8]) it was > 50 µM.

As for `C[C@H](NP(=O)(OC[C@@]1(C#N)O[C@@H](c2ccc3c(N)ncnn23)[C@H](O)[C@@H]1O)Oc1ccccc1)C(=O)OC1CCOC(C)(C)C1` (stereo partly drawn) [Example 156, 2,2-dimethyltetrahydro-2H-pyran-4-yl ((((2R,3S,4R,5S)-5-(4-aminopyrrolo[2,1-f][1,2,4]triazin-7-yl)-2-cyano-3,4-dihydroxytetrahydrofuran-2-yl)methoxy)(phenoxy)phosphoryl)alaninate], the half-maximal effective concentration (EC50) is 1.37 µM in experiment [1] (setting [5]), 25.9 µM in experiment [2] (setting [6]), 8.94 µM in experiment [3] (setting [7]) and > 100 µM in experiment [4] (setting [8]).

On to `N#C[C@]1(COP(=O)(N[C@H](C(=O)OCC2CC2)C2CCCCC2)Oc2ccccc2)O[C@@H](c2ccc3c(N)ncnn23)[C@H](O)[C@@H]1O` (stereo partly drawn) [Example 121, (2S)-cyclopropylmethyl 2-(((((2R,3S,4R,5S)-5-(4-aminopyrrolo[2,1-f][1,2,4]triazin-7-yl)-2-cyano-3,4-dihydroxytetrahydrofuran-2-yl)methoxy)(phenoxy)phosphoryl)amino)-2-cyclohexylacetate], for which the EC50 is > 5 µM in experiment [1] (setting [5]), > 100 µM in experiment [2] (setting [6]), > 100 µM in experiment [3] (setting [7]) and 56.7 µM in experiment [4] (setting [8]).

On to `CC(C)[C@H](N)C(=O)Nc1ncnn2c([C@@H]3O[C@](C#N)(CO[P@@](=O)(N[C@@H](C)C(=O)OC4CCCCC4)Oc4ccccc4)[C@@H](O)[C@H]3O)ccc12` [Example 237, cyclohexyl ((S)-(((2R,3S,4R,5S)-5-(4-((S)-2-amino-3-methylbutanamido)pyrrolo[2,1-f][1,2,4]triazin-7-yl)-2-cyano-3,4-dihydroxytetrahydrofuran-2-yl)methoxy)(phenoxy)phosphoryl)-L-alaninate], for which the concentration for a half-maximal effect (EC50) was > 10.8 µM in experiment [1] (setting [5]), > 50 µM in experiment [2] (setting [6]), > 38.4 µM in experiment [3] (setting [7]) and > 50 µM in experiment [4] (setting [8]).

As to `CCOC(=O)[C@H](C)NP(=O)(N[C@@H](C)C(=O)OCC)OC[C@@]1(C#N)O[C@@H](c2ccc3c(N)ncnn23)[C@H](O)[C@@H]1O` [Example 35, ((2R,3S,4R,5S)-5-(4-aminopyrrolo[2,1-f][1,2,4]triazin-7-yl)-2-cyano-3,4-dihydroxytetrahydrofuran-2-yl)methyl bis-ethyl L-alaninate phosphate], the EC50 in experiment [1] (setting [11]) is 1.31 µM; in experiment [2] (setting [9]) it was 29.6 µM; in experiment [3] (setting [12]), 4.07 µM; in experiment [4] (setting [10]), > 50 µM.
